Experimental data published in patent publication US20160264523A1, “CONJUGATE COMPRISING FOLIC ACID AND INDOLE-3-CARBINOL FOR MEDICAL USE” (Dom Terry International S.R.L., priority 2013, published 2016).

How the values were obtained:
[1] = ABTS cationic free radical discoloration assay (antioxidant activity); parameters: key: TEAC: mM Trolox equivalent to 1 mM tested compound; conditions: TEAC = concentration of Trolox having the same antioxidant ability of the tested compound at 1 mM
Text: The cationic free radical ABTS+° discoloration assay assesses the scavenging ability of an antioxidant against a preformed cationic radical (ABTS^+°) compared to Trolox, a hydrosoluble analogue of Vitamin E.

[2] = tested on: HT-29 (human colon adenocarcinoma); assay: Cytotoxic activity, cell growth inhibition; assay type: cell-based; conditions: HT-29 cells; n=4; read-out: IC50, concentration that inhibits the 50% cell growth compared to control cultures
Experimental: (§1) The studies of cytotoxic activity were carried out on three human cell lines: HT-29 (human colon adenocarcinoma), MCF-7 (human breast adenocarcinoma), and KB-3-1 (human oropharyngeal carcinoma), which cells are characterized by an overexpression of folic acid (FR+) receptors. […], conjugates free from folic acid (PEG-[…]), and the folate conjugates F-PEG-I3C, F-PEG-AD-(I3C)2, and F-PEG-βGlu-(I3C)2 were tested.

[3] = tested on: KB-3-1 (human oropharyngeal carcinoma); assay: Cytotoxic activity, cell growth inhibition; assay type: cell-based; conditions: KB-3-1 cells (FR+); n=4; read-out: IC50, concentration that inhibits the 50% cell growth compared to control cultures
Experimental: as §1

[4] = tested on: MCF-7 (human breast adenocarcinoma); assay: Cytotoxic activity, cell growth inhibition; assay type: cell-based; conditions: MCF-7 cells; n=4; read-out: IC50, concentration that inhibits the 50% cell growth compared to control cultures
Experimental: as §1

[5] = tested on: inducible nitric oxide synthetase (iNos) activity in J774A.1 macrophage cells stimulated by LPS; assay: Anti-inflammatory activity: production of nitrites and release of NO; assay type: cell-based; conditions: 24 h, J774A.1 macrophages stimulated with LPS of E. coli, n=5
Experimental: I3C, conjugate derivatives free from folic acid (PEG-I3C), and folate conjugates F-PEG-I3C, F-PEG-AD-(I3C)2, and F-PEG-βGlu-(I3C)2 were tested for their anti-inflammatory activity against the inducible nitric oxide synthetase (iNos) activity in J774A.1 macrophage cells stimulated by LPS and assessing the production of nitrites and the release of NO.
The PEG-I3C conjugates, free from folic acid, show a lower activity, thus indicating a real targeting effect of the folic acid molecule on the activated macrophage cells. […] The data are expressed as the inhibition percentage±s.e.m. vs the production of nitrites during 24 h by J774A.1 macrophage cells treated with LPS alone.

[6] = tested on: collagen-induced platelet aggregation; assay: Platelet antiaggregating activity on platelet-enriched plasma; assay type: cell-based
Experimental: The platelet anti-aggregating effect induced by a series of mediators was tested on platelet-enriched plasma samples.

[7] = tested on: tumor cells that are positive to the estrogen receptor; conditions: a number of in vitro and in vivo studies (background); cited from earlier work

In the case of `C[C@@H]1O[C@@H](O[C@H]2[C@H](Oc3cc(O)c4c(c3)O[C@H](c3ccc(O)cc3)CC4=O)O[C@H](CO)[C@@H](O)[C@@H]2O)[C@H](O)[C@H](O)[C@H]1O` [Naringin], the “ABTS assay (TEAC)” value [1] is reported as 0.5 ± 0.01.
For `O=c1cc(-c2ccc(O)cc2)oc2cc(O)cc(O)c12` [Apigenin], the “ABTS assay (TEAC)” value [1] was 0.2 ± 0.01.
Molecule `OCc1c[nH]c2ccccc12` [Compound I3C, Indole-3-carbinol] has an IC50 [2] of 45.1 ± 1.7 µM, an IC50 [3] of 93 ± 2.1 µM and an IC50 [4] of 30 ± 0.7 µM. For the same molecule, the “Nitrites release inhibition (% vs LPS)” value ([5]; 1 μg/mL) was 10.0 ± 1.1%, the “Nitrites release inhibition (% vs LPS)” value ([5]; 10 μg/mL) was 20.0 ± 0.9 % and the “Nitrites release inhibition (% vs LPS)” value ([5]; 100 μg/mL) was 70.1 ± 1.2 %. It also gave a platelet aggregation inhibition ([6]; 3 μM) of 70%, a platelet aggregation inhibition ([6]; 6 μM) of 73% and a platelet aggregation inhibition ([6]; 12 μM) of 78%. The platelet aggregation inhibition ([6]; 25 μM) was 79%, the “ABTS assay (TEAC)” value [1] was 3.8 ± 0.12 and the “inhibition of the development of tumor cells positive to the estrogen receptor” value [7] was “up to 90%”.
With `O=C1C[C@@H](c2ccc(O)cc2)Oc2cc(O)cc(O)c21` [Naringenin] the “ABTS assay (TEAC)” value [1] was 1.4 ± 0.03.
For PEG550-Indole-3-Carbinol [PEG550-I3C], the “Nitrites release inhibition (% vs LPS)” value ([5]; 1 μg/mL) was 12.5 ± 0.8%, the “Nitrites release inhibition (% vs LPS)” value ([5]; 10 μg/mL) was 34.1 ± 1.2 % and the “Nitrites release inhibition (% vs LPS)” value ([5]; 100 μg/mL) was 72.5 ± 2.4 %. The “ABTS assay (TEAC)” value [1] was 4.2 ± 0.26.
For `COc1ccc([C@@H]2CC(=O)c3c(O)cc(O[C@@H]4O[C@H](CO[C@@H]5O[C@@H](C)[C@H](O)[C@@H](O)[C@H]5O)[C@@H](O)[C@H](O)[C@H]4O)cc3O2)cc1O` [Hesperidin], the “ABTS assay (TEAC)” value [1] was 0.5 ± 0.09.
In the case of `O=C(O)c1ccc(O)c(O)c1` [3,4-Dihydroxybenzoic acid], the “ABTS assay (TEAC)” value [1] is reported as 4.6 ± 0.18.
For “Indole-3-Carbinol-PEG600-Indole-3-Carbinol [I3C-PEG600-I3C]”, the “Nitrites release inhibition (% vs LPS)” value ([5]; 1 μg/mL) was 32.2 ± 1.4 %, the “Nitrites release inhibition (% vs LPS)” value ([5]; 10 μg/mL) was 45.7 ± 1.7 % and the “Nitrites release inhibition (% vs LPS)” value ([5]; 100 μg/mL) was 84.3 ± 3.8 %. For the same molecule, the “ABTS assay (TEAC)” value [1] was 5.8 ± 0.41.
For Tocopherol, the “ABTS assay (TEAC)” value [1] was 2.1 ± 0.07.
With `O=C(O)/C=C/c1ccc(O)c(O)c1` [Caffeic acid] the “ABTS assay (TEAC)” value [1] was 5.8 ± 0.12.
For `C[C@@H]1O[C@@H](O[C@@H]2[C@@H](O)[C@H](OCCc3ccc(O)c(O)c3)O[C@H](CO)[C@H]2OC(=O)/C=C/c2ccc(O)c(O)c2)[C@H](O)[C@H](O)[C@H]1O` [Verbascoside], the “ABTS assay (TEAC)” value [1] was 5.3 ± 0.22.
In the case of `O=c1cc(-c2ccc(O)c(O)c2)oc2cc(O)cc(O)c12` [Luteolin], the “ABTS assay (TEAC)” value [1] is reported as 2.8 ± 0.09.
